Values of other authors in patent US6727227B1, “Tetrapetide revealing geroprotective effect, pharmacological substance on its basis, and the method of its application” (Obschestvo S Ogranichennoi Otvetstven-Nostiju “Klinika …, priority 2002, dated 2004).

Tests used:
experimental animals = conditions: cited from earlier work
LAF1 strain in mice = conditions: LAF1 mice with accelerated ageing, food-supplement; cited from earlier work
mice of SAM strain = conditions: diet with increased amount for 7 months; cited from earlier work
mice of C3H strain = conditions: addition to food; cited from earlier work
mice = conditions: cited from earlier work
[1] = tested on: Drosophila melanogaster (HEM strain); conditions: cited from earlier work

| Compound | Life span (experimental animals) | other results |
| --- | --- | --- |
| CCc1nc(C)ccc1O.Cl [2-ethyl-6-methyl-3-oxypyridine chlorhydrate] | An increase in the life span |  |
| NCCS [2-mercaptoethanolamine] | insignificant extension in the life span |  |
| Oc1cccnc1 [3-hydroxypyridine] | insignificant extension in the life span |  |
| Cc1cc(C(C)(C)C)c(O)c(C(C)(C)C)c1 [Ionol, 2.6-di-tert-butyl4-methylphenol] |  | Life span (LAF1 strain in mice): promoted an increase in the life span |
| NCCC(=O)N[C@@H](Cc1cnc[nH]1)C(=O)O [carnosine] |  | Death rate (mice of SAM strain): death rat decreased |
| CN(C)CCOC(=O)COc1ccc(Cl)cc1 [centrophenoxyn] | insignificant extension in the life span |  |
| N[C@@H](CS)C(=O)O [cystein] | insignificant extension in the life span |  |
| CCOc1ccc2c(c1)C(C)=CC(C)(C)N2 [ethoxyhin] |  | Life span (mice of C3H strain): extended the life span |
| O=C(O)[C@H](O)[C@@H](O)[C@H](O)[C@H](O)CO [gluconic acid, lactic and gluconic acids] | insignificant extension in the life span |  |
| N[C@@H](CCC(=O)N[C@@H](CS)C(=O)NCC(=O)O)C(=O)O [glutathione] | insignificant extension in the life span |  |
| COc1ccc2[nH]cc(CCNC(C)=O)c2c1 [melatonin] |  | Average life span (mice): A minor increase in the average life span; Geroprotective effect [1]: failed to produce a geroprotective effect |
| O=C1O[C@H]([C@@H](O)CO)C(O)=C1O [vitamin C] | increase in the life span |  |
| butyl hydroxytoluol | insignificant extension in the life span |  |
| vitamin A | increase in the life span |  |
| vitamin E | increase in the life span |  |
